Experimental data published in patent US11147272B2, “Pyridone compounds and agricultural and horticultural fungicides comprising the same as active ingredients” (MITSUI CHEMICALS AGRO, INC., priority 2017, dated 2021).

Legend:
Alternaia brassicicola = experiment: Test Example C: Alternaria sooty spot on cabbage; format: in vivo
Source text: Seeds of a test plant (cabbage variety: Shikidori) were planted and cultivated until the cotyledons extended.
<Control Value> Control value=100{1−(n/3)}

Plasmopara viticola = experiment: Test Example G: Downy mildew on vine; details: for Test G control value class: Downy mildew on vine (Neomuscat), 2.5 ml/pot, assessed 7 to 10 days after inoculation; for Test G control value: 7 to 10 days after inoculation
Phytophthora infestans = experiment: whole plant or invertebrate; format: in vivo; details: for Test F control value class: class of control value
Botrytis cinerea = experiment: Test Example B: Gray mold on tomato; details: for Test B control value class: class of control value
Puccinia recondita = experiment: Test Example E: Brown rust on wheat; format: in vivo
[1] = system: Blumeria graminis f. sp. hordei; experiment: Test Example D: Powdery mildew on barley; details: for Test D control value class: class of control value
Magnaporthe grisea = experiment: whole plant or invertebrate; format: in vivo; details: for Test A control value class: class of control value
[2] = system: Colletotrichum orbiculare; experiment: Test Example H: Anthracnose on cucumber; details: for Test H control value class: Anthracnose on cucumber (Sagami Hanjiro), 2.5 ml/pot, assessed 6 to 10 days after inoculation; for Test H control value: 6 to 10 days after inoculation
[3] = Alternaria sooty spot on cabbage, class of control value
[4] = Brown rust on wheat, class of control value
[5] = Alternaria sooty spot on cabbage, control value class
[6] = Downy mildew on vine, 250 ppm spray
[7] = Late blight on tomato, control value class
[8] = Gray mold on tomato, control value class
[9] = Brown rust on wheat, control value class
[10] = Powdery mildew on barley, control value class
[11] = Blast on rice, control value class
[12] = Anthracnose on cucumber, 250 ppm spray
[13] = 250 ppm drug solution sprayed on test plant
[14] = 250 ppm drug solution sprayed (2.5 ml/pot), grape Neomuscat
[15] = 250 ppm drug solution sprayed (2.5 ml/pot), cucumber Sagami Hanjiro

Structure (SMILES)	Test C control value class (Alternaia brassicicola; [3])	Test G control value class (Plasmopara viticola; 250 ppm spray)	Test F control value class (Phytophthora infestans; Late blight on tomato)	Test B control value class (Botrytis cinerea; Gray mold on tomato)	Test E control value class (Puccinia recondita; [4])	Test D control value class ([1]; Powdery mildew on barley)	Test A control value class (Magnaporthe grisea; Blast on rice)	Test H control value class ([2]; 250 ppm spray)	Test C control value (Alternaia brassicicola; [5])	Test G control value (Plasmopara viticola; [6])	Test F control value (Phytophthora infestans; [7])	Test B control value (Botrytis cinerea; [8])	Test E control value (Puccinia recondita; [9])	Test D control value [1, 10]	Test A control value (Magnaporthe grisea; [11])	Test H control value [2, 12]	further results
CCn1c(-c2c(F)cccc2F)c(C(C)(CC)OC)cc(Cl)c1=O (centres unmarked) [Compound No. 29, 3-chloro-6-(2,6-difluorophenyl)-1-ethyl-5-(2-methoxybutan-2-yl)pyridin-2(1H)-one]																	pest or weed control at 250 µg/mL (Alternaia brassicicola; Brassica oleracea, topical, Alternaria sooty spot on cabbage, class of control value, read-out: Test C control value class): > 50%; pest or weed control at 250 ppm (Plasmopara viticola; Plasmopara viticola, topical, read-out: Test G control value class): > 50%; pest or weed control at 250 µg/mL (Phytophthora infestans; Phytophthora infestans, in Solanum lycopersicum, topical, read-out: Test F control value class): < 50%; pest or weed control at 250 µg/mL (Botrytis cinerea; Botrytis cinerea, in Solanum lycopersicum, topical, read-out: Test B control value class): > 50%; pest or weed control at 250 µg/mL (Puccinia recondita; Puccinia recondita, topical, Brown rust on wheat, class of control value, read-out: Test E control value class): > 50%; pest or weed control at 250 µg/mL ([1]; Blumeria graminis, in Hordeum vulgare, topical, read-out: Test D control value class): > 50%; pest or weed control at 250 µg/mL (Magnaporthe grisea; Pyricularia oryzae, in Oryza sativa, read-out: Test A control value class): > 50%; pest or weed control at 250 ppm ([2]; Colletotrichum orbiculare, in Cucumis sativus, topical, read-out: Test H control value class): > 50%
CCn1c(-c2ccc(OCC#N)cc2F)c(CC(C)C)cc(Cl)c1=O [compound 127]	H (more than 50% control value)	H (more than 50% control value)	L (50% or less control value)	H (more than 50% control value)	H (more than 50% control value)	H (more than 50% control value)	L (50% or less control value)	H (more than 50% control value)									
CCC1=C(c2ccc(F)cc2Cl)N(C)C(=O)CC1 [compound 312]									H (more than 50% control value)	L (50% or less control value)	L (50% or less control value)	L (50% or less control value)	L (50% or less control value)	L (50% or less control value)	L (50% or less control value)	L (50% or less control value)	
CCCCCCCCCC1=C(c2ccc(F)cc2Cl)N(CC)C(=O)CC1 [compound 267]									L (50% or less control value)	L (50% or less control value)	L (50% or less control value)	L (50% or less control value)	L (50% or less control value)	H (more than 50% control value)	L (50% or less control value)	H (more than 50% control value)	
CCn1c(-c2c(F)cccc2F)c(C(C)(F)C(C)C)cc(Cl)c1=O (racemic) [compound 184]	H (more than 50% control value)	H (more than 50% control value)	L (50% or less control value)	H (more than 50% control value)	H (more than 50% control value)	H (more than 50% control value)	H (more than 50% control value)	H (more than 50% control value)									
CCCc1ccc(=O)n(CC)c1-c1ccc(F)cc1Cl [compound 190]									H (more than 50% control value)	H (more than 50% control value)	L (50% or less control value)	H (more than 50% control value)	H (more than 50% control value)	H (more than 50% control value)	H (more than 50% control value)	L (50% or less control value)	
CCn1c(-c2c(F)cc(OC)cc2F)c(CC(C)C)ccc1=O [compound 39]	H (more than 50% control value)	H (more than 50% control value)	L (50% or less control value)	H (more than 50% control value)	H (more than 50% control value)	H (more than 50% control value)	H (more than 50% control value)	H (more than 50% control value)									
COc1cc(F)c(-c2c(C(C)(O)C(C)C)cc(Cl)c(=O)n2C)c(F)c1 (centres unmarked) [compound 487]																	Test C control value (Alternaia brassicicola; [13]): H (more than 50% control value); Test G control value (Plasmopara viticola; [14]): H (more than 50% control value); Test F control value (Phytophthora infestans; [13]): H (more than 50% control value); Test B control value (Botrytis cinerea; [13]): H (more than 50% control value); Test E control value (Puccinia recondita; [13]): H (more than 50% control value); Test D control value [1, 13]: H (more than 50% control value); Test A control value (Magnaporthe grisea; [13]): H (more than 50% control value); Test H control value [2, 15]: H (more than 50% control value)
C=Cc1cc(Cl)c(=O)n(CC)c1-c1ccc(F)cc1Cl [compound 295]									H (more than 50% control value)	L (50% or less control value)	H (more than 50% control value)	H (more than 50% control value)	H (more than 50% control value)	H (more than 50% control value)	L (50% or less control value)	L (50% or less control value)	
CCc1cc(Cl)c(=O)n(C)c1-c1ccc(F)cc1Cl [compound 316]									H (more than 50% control value)	H (more than 50% control value)	H (more than 50% control value)	H (more than 50% control value)	H (more than 50% control value)	L (50% or less control value)	L (50% or less control value)	H (more than 50% control value)	
C#CCOc1cccc(F)c1-c1c(CC(C)C)cc(Cl)c(=O)n1CC [compound 102]	H (more than 50% control value)	H (more than 50% control value)	L (50% or less control value)	H (more than 50% control value)	H (more than 50% control value)	H (more than 50% control value)	H (more than 50% control value)	H (more than 50% control value)									
CCCc1cc(Br)c(=O)n(CC)c1-c1ccc(OC)cc1Br [compound 382]																	Test C control value (Alternaia brassicicola; [13]): H (more than 50% control value); Test G control value (Plasmopara viticola; [14]): H (more than 50% control value); Test F control value (Phytophthora infestans; [13]): H (more than 50% control value); Test B control value (Botrytis cinerea; [13]): H (more than 50% control value); Test E control value (Puccinia recondita; [13]): H (more than 50% control value); Test D control value [1, 13]: L (50% or less control value); Test A control value (Magnaporthe grisea; [13]): H (more than 50% control value); Test H control value [2, 15]: H (more than 50% control value)
CCn1c(-c2c(F)cc(F)cc2F)c(C(C)(O)CC)ccc1=O (centres unmarked) [compound 481]																	Test C control value (Alternaia brassicicola; [13]): L (50% or less control value); Test G control value (Plasmopara viticola; [14]): L (50% or less control value); Test F control value (Phytophthora infestans; [13]): L (50% or less control value); Test B control value (Botrytis cinerea; [13]): H (more than 50% control value); Test E control value (Puccinia recondita; [13]): H (more than 50% control value); Test D control value [1, 13]: H (more than 50% control value); Test A control value (Magnaporthe grisea; [13]): L (50% or less control value); Test H control value [2, 15]: H (more than 50% control value)
